pIC50: −log10 of the molar value.

In one test the test system is THP-1. Description: Cytotoxicity in human THP-1 cells assessed as reduction in cell viability incubated for 72 hrs by MTT assay. In kind it is cell-based. To be noted: THP-1, 72 h. In general terms: Formazan colour is commonly taken as a measure of viable cells.
As usually defined, the pIC50 is the negative decadic logarithm of the IC50, by convention in mol/L. `CC(C)(O)c1coc(S(=O)(=O)NC(=O)Nc2c3c(cc4c2CCC4)CCC3)c1`: the pIC50 is 4.01.
Same read-out and setting: the result for `CS(=O)(=O)N1CCCc2ccc(N(S(C)(=O)=O)S(C)(=O)=O)cc21` reads less than 4.00; that for `CS(=O)(=O)N1CCCc2ccc(N(S(=O)(=O)c3ccc(F)cc3)S(=O)(=O)c3ccc(F)cc3)cc21`, less than 4.00.
As to `CS(=O)(=O)N1CCCc2ccc(N(S(=O)(=O)c3cccc(F)c3)S(=O)(=O)c3cccc(F)c3)cc21`, the pIC50 was 4.14.
In the case of `CS(=O)(=O)N1CCCc2ccc(N(S(=O)(=O)c3ccc(C(F)(F)F)cc3)S(=O)(=O)c3ccc(C(F)(F)F)cc3)cc21`, the negative-log IC50 (pIC50) is 5.08.
Regarding `CCCS(=O)(=O)N(c1ccc2c(c1)N(S(C)(=O)=O)CCC2)S(=O)(=O)CCC`, the pIC50 is 4.01.
The same measure, in the same setting: in the case of `CS(=O)(=O)N1CCCc2ccc(N(S(=O)(=O)CCN3C(=O)c4ccccc4C3=O)S(=O)(=O)CCN3C(=O)c4ccccc4C3=O)cc21` it was less than 4.00; in that of `CS(=O)(=O)N1CCCc2ccc(N(S(=O)(=O)c3ccccc3F)S(=O)(=O)c3ccccc3F)cc21`, less than 4.00.
With `CS(=O)(=O)N1CCCc2ccc(N(S(=O)(=O)c3cccc4ccccc34)S(=O)(=O)c3cccc4ccccc34)cc21`, the negative logarithm of the IC50 (pIC50) is less than 4.00.
In the case of `CS(=O)(=O)N1CCCc2ccc(N(S(=O)(=O)c3ccc(Br)cc3)S(=O)(=O)c3ccc(Br)cc3)cc21`, the pIC50 was 4.18.
Same read-out and setting: the result for `COC(=O)c1ccc(S(=O)(=O)N(c2ccc3c(c2)N(S(C)(=O)=O)CCC3)S(=O)(=O)c2ccc(C(=O)OC)cc2)cc1` reads less than 4.00; that for `Cc1ccc(S(=O)(=O)N(c2ccc3c(c2)N(S(C)(=O)=O)CCC3)S(=O)(=O)c2ccc(C)cc2)cc1`, 4.11.
Same read-out and setting: in the case of `CCS(=O)(=O)N(c1ccc2c(c1)N(S(C)(=O)=O)CCC2)S(=O)(=O)CC` it was less than 4.00.
On to `CS(=O)(=O)N1CCCc2ccc(N(S(=O)(=O)c3ccc(C#N)cc3)S(=O)(=O)c3ccc(C#N)cc3)cc21`, for which the pIC50 was 4.44.
On the same count and under the same terms, in the case of `CS(=O)(=O)N1CCCc2ccc(N(S(=O)(=O)c3cc(C(F)(F)F)cc(C(F)(F)F)c3)S(=O)(=O)c3cc(C(F)(F)F)cc(C(F)(F)F)c3)cc21` it was 4.46; in that of `CS(=O)(=O)N1CCCc2ccc(N(S(=O)(=O)Cc3ccccc3)S(=O)(=O)Cc3ccccc3)cc21`, less than 4.00.
Same read-out and setting: the result for `CC(=O)Nc1ccc(S(=O)(=O)N(c2ccc3c(c2)N(S(C)(=O)=O)CCC3)S(=O)(=O)c2ccc(NC(C)=O)cc2)cc1` reads less than 4.00.
Turning to `COc1ccc(S(=O)(=O)N(c2ccc3c(c2)N(S(C)(=O)=O)CCC3)S(=O)(=O)c2ccc(OC)cc2)cc1`, the pIC50 is 4.04.
Consider `CS(=O)(=O)N1CCCc2ccc(N(S(=O)(=O)c3ccc4ccccc4c3)S(=O)(=O)c3ccc4ccccc4c3)cc21`, for which the pIC50 is 4.01.
On the same count and under the same terms, in the case of `CS(=O)(=O)N1CCCc2ccc(N(S(=O)(=O)c3ccc(-c4ccccc4)cc3)S(=O)(=O)c3ccc(-c4ccccc4)cc3)cc21` it was less than 4.00.
Consider `CS(=O)(=O)N1CCCc2ccc(N(S(=O)(=O)c3ccccc3)S(=O)(=O)c3ccccc3)cc21`, for which the pIC50 was less than 4.00.
Still for that read-out and setting: in the case of `CS(=O)(=O)N1CCCc2ccc(N(S(=O)(=O)c3ccc(Cl)cc3)S(=O)(=O)c3ccc(Cl)cc3)cc21` it was less than 4.00; in that of `CS(=O)(=O)N1CCCc2ccc(N(S(=O)(=O)c3ccccc3[N+](=O)[O-])S(=O)(=O)c3ccccc3[N+](=O)[O-])cc21`, less than 4.00.
On the same count and under the same terms, in the case of `CS(=O)(=O)N1CCCc2ccc(N(S(=O)(=O)c3cccnc3)S(=O)(=O)c3cccnc3)cc21` it was 4.15; in that of `CS(=O)(=O)N1CCCc2ccc(N(S(=O)(=O)c3cccs3)S(=O)(=O)c3cccs3)cc21`, less than 4.00; in that of `CCCCS(=O)(=O)N(c1ccc2c(c1)N(S(C)(=O)=O)CCC2)S(=O)(=O)CCCC`, 4.02.
`CS(=O)(=O)N1CCCc2ccc(N(S(=O)(=O)c3ccc([N+](=O)[O-])cc3)S(=O)(=O)c3ccc([N+](=O)[O-])cc3)cc21`: the pIC50 is 4.19.

The target in another test is NACHT, LRR and PYD domains-containing protein 3 (Homo sapiens, UniProt Q96P20). In words: Inhibition of NLRP3 in PMA-stimulated human THP-1 cells assessed as reduction in IL-1beta release pre-treated for 24 hrs followed by stimulation with LPS for 3 hrs and ATP for 1 hr by ELISA analysis. The test is classed as cell-based.
Chain of NACHT, LRR and PYD domains-containing protein 3 (Q96P20 whole entry, the tested form may be a part): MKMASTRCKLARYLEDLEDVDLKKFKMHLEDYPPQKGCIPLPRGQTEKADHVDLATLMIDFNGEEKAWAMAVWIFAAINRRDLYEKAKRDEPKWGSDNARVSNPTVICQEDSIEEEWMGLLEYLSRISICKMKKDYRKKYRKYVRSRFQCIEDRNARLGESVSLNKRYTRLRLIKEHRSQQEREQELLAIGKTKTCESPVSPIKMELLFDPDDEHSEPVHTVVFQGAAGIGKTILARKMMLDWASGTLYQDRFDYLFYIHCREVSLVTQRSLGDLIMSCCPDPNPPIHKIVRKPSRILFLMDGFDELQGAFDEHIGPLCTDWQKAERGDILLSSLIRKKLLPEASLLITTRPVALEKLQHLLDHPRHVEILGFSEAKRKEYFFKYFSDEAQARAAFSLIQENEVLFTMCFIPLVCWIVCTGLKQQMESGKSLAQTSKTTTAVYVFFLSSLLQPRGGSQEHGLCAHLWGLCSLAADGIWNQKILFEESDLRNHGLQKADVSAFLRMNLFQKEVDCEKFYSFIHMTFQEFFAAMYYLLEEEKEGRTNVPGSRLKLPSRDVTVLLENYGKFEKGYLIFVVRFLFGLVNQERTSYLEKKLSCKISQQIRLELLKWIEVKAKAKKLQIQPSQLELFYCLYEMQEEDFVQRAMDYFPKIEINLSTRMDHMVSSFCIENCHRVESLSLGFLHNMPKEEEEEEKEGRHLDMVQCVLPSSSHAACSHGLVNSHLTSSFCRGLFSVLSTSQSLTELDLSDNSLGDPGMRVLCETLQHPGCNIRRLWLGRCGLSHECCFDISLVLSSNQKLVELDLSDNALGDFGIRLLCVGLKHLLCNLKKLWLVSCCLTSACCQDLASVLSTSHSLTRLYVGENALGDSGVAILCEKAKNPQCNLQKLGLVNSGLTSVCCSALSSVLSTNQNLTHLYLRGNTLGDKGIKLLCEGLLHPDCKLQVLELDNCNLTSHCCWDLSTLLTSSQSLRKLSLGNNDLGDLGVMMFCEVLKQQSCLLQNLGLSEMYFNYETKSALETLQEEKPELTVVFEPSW
Settings: not given
(ELISA stands for enzyme-linked immunosorbent assay.)
Turning to `CS(=O)(=O)N1CCCc2ccc(N(S(=O)(=O)c3ccccc3[N+](=O)[O-])S(=O)(=O)c3ccccc3[N+](=O)[O-])cc21`, the pIC50 is 4.86.

The values above are taken from ChEMBL document CHEMBL4765468, “Development of Novel Tetrahydroquinoline Inhibitors of NLRP3 Inflammasome for Potential Treatment of DSS-Induced Mouse Colitis” (J Med Chem, 2021).
